# Experimental data as given in US12642805B2, “Use of oxygenated cholesterol sulfates for treating at least one of insulin resistance, diabetes, and prediabetes” (Medicis Pharmaceutical Corporation, priority 2020, dated 2026).
# Test system: Huh-7 cells
# Experiment: whole genome bisulfite sequencing (WGBS), 5mCpG demethylation in promoter regions
# Assay type: cell-based, human
# Description: Each sample, 2 μg, was sent to EpigenDx, Inc. (Hopkinton, MA) for analysis of global methylation bisulfite sequencing. The same samples, 6 μg, were sent to Novogene Co., Ltd (Tianjin, China) for analysis of whole genome bisulfite sequencing (WGBS). Total RNA was isolated using the Promega SV total RNA isolation system (Madison, WI) with DNase treatment. Each sample, 2 μg, was used for the first-strand cDNA synthesis as recommended by the manufacturer (Invitrogen, Carlsbad, CA). Real-time RT-PCR was performed using SYBR Green as the indicator on ABI 7500 Fast Real-Time PCR System (Applied Biosystems, Foster City, CA). Amplifications of β-actin or GAPDH were used as internal controls. Relative messenger RNA (mRNA) expression was quantified with the comparative cycle threshold (Ct) method using the primer set shown in Table 1.1 and was expressed as 2^−ΔΔCt.
# Each sample, […] of genomic DNA spiked with 26 ng lambda DNA, was fragmented by sonication to 200-300 bp with Covaris S220, followed by end repair and adenylation. Cytosine-methylated barcodes were ligated to sonicated DNA per the manufacturer's instructions. These DNA fragments were treated twice with bisulfite using EZ DNA Methylation-Gold™ Kit (Zymo Research) before the resulting single-strand DNA fragments were PCR amplified using KAPA HiFi Hot Start Uracil and Ready Mix (2×). Library concentration was quantified by Qubit® 2.0 Flurometer (Life Technologies, CA, USA) and quantitative PCR, and the insert size was assayed on an Agilent Bioanalyzer 2100 system.
# The library preparations were sequenced on an Illumina Hiseq 2500/4000 or Novaseq platform and 125 bp/150 bp paired-end reads were generated. Image analysis and base calling were performed with Illumina CASAVA pipeline. Trimmomatic (Trimmomatic-0.36) software was used for quality control. Bismark software (version 0.16.3; Krueger F, 2011) was used to perform alignments of bisulfite-treated reads to a reference genome (−X 700-dovetail). DSS software (23) was used to identify differentially methylated regions (DMRs). KOBAS software was used to test the statistical enrichment of DMR related genes in the Kyoto Encyclopedia of Genes and Genomes (KEGG) pathways.
# Each sample (6 μg) was used for analysis of the whole genome bisulfite sequencing (WGBS).
compound,measurement,setting,value
"C[C@H](CCCC(C)(C)O)[C@H]1CC[C@H]2[C@@H]3CC=C4C[C@@H](OS(=O)(=O)O)CC[C@]4(C)[C@H]3CC[C@]12C [25HC3S, 25-hydroxycholesterol-3-sulfate]","genes demethylated in promoter regions, Calcium signaling pathway","HG 72 h, then 25HC3S 4 h",19 genes
same,"genes demethylated in promoter regions, MAPK signaling pathway","HG 72 h, then 25HC3S 4 h",23 genes
same,"genes demethylated in promoter regions, cAMP signaling pathway","HG 72 h, then 25HC3S 4 h",28 genes
same,genes with 5mCpG converted to CpG in promoter regions,high glucose model,1074 genes
